Series [1] has as its system Candida tropicalis MY 1012. The experiment in a line: Minimum fungicidal concentration (MFC), microbroth dilution assay in YNBD. In kind it is cell-based. As to conditions: YNBD medium; MFC = lowest concentration showing no growth or less than 4 colonies per spot. An excerpt: (§1) The compounds of the present invention are active against many fungi and as previously indicated particularly against Candida species. The antifungal properties may be illustrated with the minimum fungicidal concentration (MFC) determination against certain Candida organisms in a microbroth dilution assay carried out in a Yeast Nitrogen Base (Difco) medium with 1 percent dextrose (YNBD).
(§2) In carrying out the assay, Compound I was solubilized in 10 percent dimethyl sulfoxide (DMSO) and diluted to 2560 μg/ml. The compound was then diluted to 256 μg/ml in YNBD. 0.15 mL of the suspension was dispensed to the top row of a 96-well plate (each well containing 0.15 ml of YNBD) resulting in a drug concentration of 128 μg/ml. Two-fold dilutions were then made from the top row to obtain final drug concentrations ranging from 128 to 0.06 μg/ml.
(§3) The yeast cultures, maintained on Sabouraud dextrose agar were transferred to YN broth (Difco) and incubated overnight at 35° C. with shaking (250 rpm). After incubation, each culture was diluted in sterile water to yield a final concentration of 1-5×10^6 colony forming units (CFU)/ml.
(§4) 96-well microplates were inoculated using a MIC-2000 (Dynatech) which delivers […] per well yielding a final inoculum per well of 1.5-7.5×10^3 cells. The microplates were incubated at 35° C. for 24 hours. The minimum inhibitory concentrations (MICs) were recorded as the lowest concentrations of drug showing no visible growth.
(§5) After recording the MIC, the plates were shaken to resuspend the cells. Thereafter, 1.5 μl samples from the wells in the 96-well microplate were transferred to a single well tray containing Sabouraud dextrose agar. The inoculated trays were incubated 24 hours at 28° C. and then read for minimum fungicidal concentration (MFC). MFC is defined as the lowest concentration of drug showing no growth or less than 4 colonies per spot.

For series [2], the system named is Candida albicans MY 1055. The description is as above. As to conditions: YNBD medium; MFC = lowest concentration showing no growth or less than 4 colonies per spot. In kind it is cell-based.
Source text: as §1, §2, §3, §4, §5

Series [3] concerns Candida albicans MY 1055. The experiment in a line: In vivo effectiveness: recoverable Candida CFU in kidneys of infected mice. As to conditions: 0.4 mg/kg I.P. twice daily for four consecutive days; DBA/2 mice; kidneys after seven days. The protocol:
Growth from an overnight SDA culture of Candida albicans MY 1055 was suspended in sterile saline and the cell concentration determined by hemacytometer count and the cell suspension adjusted to 3.75×10^5 cells/ml. Then 0.2 milliliter of this suspension was administered I.V. in the tail vein of mice so that the final inoculum was 7.5×10^4 cells/mouse.
The assay then was carried out by administering aqueous solutions of Compound I (R1 =--CH2 CH2 NH2) at various concentrations intraperitoneally (I.P.), twice daily (b.i.d.) for four consecutive days to 18 to 20 gram female DBA/2 mice, which previously had been infected with Candida albicans (MY 1055) in the manner described above. Distilled water was administered I.P. to C. albicans challenged mice as controls. After seven days, the mice were sacrificed by carbon dioxide gas, paired kidneys were removed aseptically and placed in sterile polyethylene bags containing 5 milliters of sterile saline. The kidneys were homogenized in the bags, serially diluted in sterile saline and aliquots spread on the surface of SDA plates. The plates were incubated at 35° C. for 48 hours and yeast colonies were enumerated for determination of colony forming units (CFU) per-gram of kidneys.

The test system of series [4] is human blood cells. Kind of series: Red blood cell lysis, minimum lytic concentration (MLC). It is filed as cell-based. To be noted: 2 hours at room temperature, lowest concentration giving complete or partial lysis, tested 400 to 0.20 μg/ml. From the text: A harmful and potentially fatal side reaction of a number of drugs including certain antibiotically active echinocandin compounds is red blood cell lysis. […] The blood cell lysis property may be seen in the determination carried out in the following manner.
The blood employed is a 4 percent suspension of freshly drawn heparinized blood prepared by adding 2 milliliters of blood to 50 milliliters of sterile 5 percent dextrose.
Compoufid I was solubilized in a small volume of dimethylsulfoxide (DMSO) that was then diluted with distilled water to a final concentration of 5 percent DMSO to obtain a drug solution of 4.0 mg/ml. A 0.2 milliliter amount of the drug solution was added to 1.4 milliliters of sterile 5 percent dextrose to obtain the test solution. A diluent control was also prepared.
A 96-well microtiter plate with a well volume of 0.35 ml was used for the assay. Columns 2-12 were filled with 150 µl of sterile 5 percent dextrose. Then, 300 μl of test solutions were dispensed into the wells in column 1 and serially two-fold diluted in 5 percent dextrose to yield final test concentrations of from 400 to 0.20 μg/ml. 38 μl of red blood cell suspension were added to each well, the plate was gently agitated to mix the well contents and incubated at room temperature for 2 hours, and thereafter observed to determine extent of hemolysis as indicated by complete or partial clearing (lysis).

For series [5], the system named is Pneumocystis carinii. The experiment in a line: Pneumocystis carinii pneumonia in immunosuppressed rats, reduction of cysts. As to conditions: subcutaneous, twice daily for four days. In kind it is in vivo, Sprague-Dawley rats. Here is the method:
The compounds of the present invention may also be useful for inhibiting or alleviating Pneumocvstis carinii infections in immune compromised patients. […] Before drug treatment, two rats are sacrificed to confirm the presence of Pneumocystis carinii pneumonia (PCP). Five rats (weighing approximately 150 grams) are injected twice daily for four days subcutaneously (sc) with Compound I in 0.25 ml of vehicle (distilled water). A vehicle control is also carried out. All animals continue to receive dexasone in the drinking water and low protein diet during the treatment period. At the completion of the treatment, all animals are sacrificed, the lungs are removed and processed, and the extent of disease determined by microscopic examination of stained slides for the presence of cysts.
The dosage required for 90 percent reduction of cysts with representative compounds may be seen in the following table: […]

Series [6] has as its system Candida albicans MY 1750. The experiment in a line: Minimum fungicidal concentration (MFC), separate similar experiment. It is filed as cell-based.
Source text: as §1
In carrying out the assay, Compound I was solubilized in 10 percent dimethyl sulfoxide (DMSO) and diluted to 2560 μg/ml. The compound was then diluted to 256 μg/ml in YNBD. 0.15 mL of the suspension was dispensed to the top row of a 96-well plate (each well containing 0.15 ml of YNBD) resulting in a drug concentration of 128 μg/ml. Two-fold dilutions were then made from the top row to obtain final drug concentrations ranging from 128 to 0.06 μg/ml. […]
96-well microplates were inoculated using a MIC-2000 (Dynatech) which delivers […] per well yielding a final inoculum per well of 1.5-7.5×10^3 cells. […] The minimum inhibitory concentrations (MICs) were recorded as the lowest concentrations of drug showing no visible growth.
After recording the MIC, the plates were shaken to resuspend the cells. […] The inoculated trays were incubated 24 hours at 28° C. and then read for minimum fungicidal concentration (MFC). […]

2 substances from patent US5914313A, “1-[4-hydroxy-5-aminoethyloxy-N^2 -(10,12-dimethyl-1-oxotetradecyl)ornithine]-5-(3-hydroxyglutamine)-6-(3- hydroxyproline)echinocandin B, other aminoalkyl derivatives and salts thereof” (Merck & Co., Inc., priority 1993, dated 1999) can be followed below.

As to “1-[4-hydroxy-5-aminoethyloxy-N^2 -(10,12-dimethyl-1-oxotetradecyl)ornithine]-5-(3-hydroxyglutamine)-6-(3-hydroxyproline) echinocandin B trifluoroacetate [--CH2 CH2 NH2 / DMTD]”, in series [1], the “MFC C. tropicalis MY 1012” value worked out at 0.25 µg/mL. In addition, the “MFC C. albicans MY 1055” value in series [2] was determined as 0.125 µg/mL. The “reduction of recoverable Candida CFUs (kidneys)” value in series [3] was “greater than 99%”.

As to “Glycylaminoethyloxy Ether as the Trifluoroacetate [--CH2 CH2 NHCOCH2 NH2 / DMTD]”, in series [4], the “MLC (minimum lytic concentration)” value is more than 400 µg/mL. Further, in series [1], the “MFC C. tropicalis MY 1012” value turned out to be 0.5 µg/mL. Also, the “MFC C. albicans MY 1055” value in series [2] came out at 1.0 µg/mL. In addition, the “dosage required for 90 percent reduction of cysts” value in series [5] is 0.04 mg/kg. Moreover, the “MFC C. albicans MY 1750” value in series [6] is 0.50 µg/mL.
